Measurements published in US9725459B2, “3-oxo-tetrahydro-furo[3,2-B]pyrrol-4(5H)-yl) derivatives I” (GRÜNENTHAL GMBH, priority 2014, dated 2017).

What was measured:
[1] = Caco 2 permeability assay; type: in vitro ADME, human; details: human; for efflux ratio at 120 min, 10 μM: pH 7.4, efflux ratio ER=Peff(B−A)/Peff(A−B), Caco-2; for Papp A→B at 120 min, 10 μM / Papp B→A at 120 min, 10 μM: Caco-2 monolayer, HBSS pH 7.4; for Papp A→B at 120 min, 10 μM: apical to basolateral, read-out: Peff a − b; for Papp B→A at 120 min, 10 μM: basolateral to apical, read-out: Peff b − a
Method: (§1) The intestinal permeability of a potential drug is assessed by in vitro cell culture from a human colon adenoma-carcinoma derived cell line. This cell line expresses some of the systems considered relevant to active drug transport e.g. […] (P-gp). In vitro cellular permeability assays can reflect both, permeation by passive diffusion and active transport (uptake and efflux). The rate of permeation across monolayers of Caco 2 cells were correlated to the extents of absorption (Hidalgo et al., Gastroenterology 1989; 96(3):736 49). Original methodology was developed by Artursson and Taveli (Drug Bioavailability. Series: Methods and Principles in Medicinal Chemistry. Weinheim: Wiley-VCH Verlag; 2003; p. 72-89).
(§2) The assay is performed as a trans-flux experiment. Caco-2 cells (cells from ATCC) are seeded and grown to confluence to form a monolayer (ca. 3 weeks, between passage numbers 40-60) on a readily permeable support in a plastic well supported within a chamber (Millipore Multiscreen Caco-2 plates, at a cell density of ca. 1×10^5 cells/cm^2). Cells are cultured for 20 days in DMEM and media is changed every two or three days. The cells form tight junctions, so paracellular diffusion is not possible, and grow in a polarised manner, efflux transporters (P-gp) are expressed on their apical surfaces facing the culture medium, rather than at their basolateral surfaces through which they are attached to the support membrane. A low concentration of a test compound is added to the upper (apical: A) or lower (basolateral: B) chambers, and the rate of loss from the donor compartment, and the rate of transfer to the acceptor chamber, is determined by LC-MS/MS. Consequently the influence of efflux transporters expressed in the apical membrane can be determined by comparing permeability rates from A to B and B to A. Assays are generally performed in gently shaken protein-free buffer.
(§3) On ca. day 20 the permeability study is performed. The monolayers are prepared by rinsing both basolateral and apical surfaces twice with Hanks Balanced Salt Solution (HBSS) pH 7.4 buffer with HEPES (25 mM) and 4.45 mM glucose at 37° C. Cells are then incubated with HBSS in both apical and basolateral compartments for 40 min to stabilise physiological parameters. Incubations are carried out in an atmosphere of 5% CO2 with a rel. humidity of 95% at 37° C.
(§4) HBSS is next removed from the apical compartment and replaced with test compound dosing solution. Test compound dosing solutions are made by diluting 10 mM test compound in DMSO with HBSS to give a final test compound concentration of 10 μM (final DMSO concentration 1%).
(§5) The fluorescent integrity marker lucifer yellow is also included in the dosing solution. Analytical standards are made from dosing solutions. The apical compartment inserts are then placed into ‘companion’ plates containing fresh HBSS. For basolateral to apical (B-A) permeability determination the experiment is initiated by replacing buffer in the inserts then placing them in companion plates containing dosing solutions. At 120 min the companion plate is removed and apical and basolateral samples diluted for analysis by LC-MS/MS. Test compound permeability is assessed in duplicate. […] Talinolol (a known P-gp substrate 2) is also included as a control compound to assess whether functional P-gp is present in the Caco-2 cell monolayer.
(§6) Test and control compounds are quantified by LC-MS/MS cassette analysis using a 5-point calibration with appropriate dilution of the samples. The starting concentration (C0) and experimental recovery are calculated from both apical and basolateral compartment concentrations.
(§7) Apparent permeability (Papp), used interchangeably with effective permeability (Peff) and efflux ratio (ER) are generated for each compound and reference compound. The permeability coefficient for each compound (Papp) is calculated from the following equation: Peff=dQ/dt/C0×A […]

Caco-2 cells = assay: Caco 2 permeability assay; type: in vitro ADME, human; details: Caco-2, verbal assessment
Method: as §1, §2, §3, §4, §5, §6, §7

human cathepsin S (CatS) = human cathepsin S (CatS) (Homo sapiens (Human), UniProt P25774); assay: CatS functional enzyme assay; type: biochemical; details: for Selectivity Ki(hCatS)/Ki(hCatK): ratio Ki(hCatS)/Ki(hCatK); for Ki: recombinant human CatS, substrate Z-VVR-AMC 5 μM, pH 6.5, Ki by Cheng Prusoff equation, read-out: hCatS, Ki
Summary of the method: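 Recombinant human enzymes were incubated 10 min at RT with AMC substrate: CatS 0.0007 mU/well with Z-VVR-AMC 5 µM; CatK 0.00175 mU/well with Z-FR-AMC 40 µM; CatL 0.000874 mU/well with Z-VVR-AMC 40 µM. Fluorescence gave IC50, converted to Ki by Cheng-Prusoff.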

human cathepsin L (CatL) = human cathepsin L (CatL) (Homo sapiens (Human), UniProt P07711); assay: CatL functional enzyme assay; type: biochemical; details: read-out: hCatL, inhibition [%] at 31.6 μM
human cathepsin K (CatK) = human cathepsin K (CatK) (Homo sapiens (Human), UniProt P43235); assay: CatK functional enzyme assay; type: biochemical; details: recombinant human CatK, substrate Z-FR-AMC 40 μM, pH 5.5; Ki by Cheng Prusoff equation; read-out: hCatK, Ki
Summary of the method: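 Recombinant human enzymes in 50 mM NaOAc, 10 mM EDTA, 1 mM DTT, 0.01% Triton X-100, pH 5.5, 10 min at RT. CatK: 0.00175 mU/well with 40 μM Z-FR-AMC; CatL: 0.000874 mU/well with 40 μM Z-VVR-AMC. AMC fluorescence read; IC50 converted to Ki via Cheng–Prusoff.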

Sequence of human cathepsin K (CatK) (P43235 115-329): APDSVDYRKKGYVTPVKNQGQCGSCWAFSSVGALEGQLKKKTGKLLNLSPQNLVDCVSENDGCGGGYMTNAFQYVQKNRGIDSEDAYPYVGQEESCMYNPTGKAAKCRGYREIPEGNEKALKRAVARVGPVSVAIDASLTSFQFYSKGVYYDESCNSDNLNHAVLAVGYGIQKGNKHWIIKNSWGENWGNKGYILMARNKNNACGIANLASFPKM
Sequence of human cathepsin L (CatL) (P07711 114-333): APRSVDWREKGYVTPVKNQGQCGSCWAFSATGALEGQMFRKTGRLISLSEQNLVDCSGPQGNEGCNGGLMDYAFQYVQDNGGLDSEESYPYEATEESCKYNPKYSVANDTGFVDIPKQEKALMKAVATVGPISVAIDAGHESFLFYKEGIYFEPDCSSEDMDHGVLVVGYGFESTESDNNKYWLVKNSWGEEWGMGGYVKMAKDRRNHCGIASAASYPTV
Sequence of human cathepsin S (CatS) (P25774 115-331): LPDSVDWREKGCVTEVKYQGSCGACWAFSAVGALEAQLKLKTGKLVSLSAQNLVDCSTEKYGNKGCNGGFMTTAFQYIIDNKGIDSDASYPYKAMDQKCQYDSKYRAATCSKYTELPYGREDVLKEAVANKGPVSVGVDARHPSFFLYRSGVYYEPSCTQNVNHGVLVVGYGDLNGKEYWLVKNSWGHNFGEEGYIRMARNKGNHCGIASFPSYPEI

Structure (SMILES) | efflux ratio at 120 min, 10 μM [1] | Papp A→B at 120 min, 10 μM [1] [×10⁻⁶ cm/s] | Papp B→A at 120 min, 10 μM [1] [×10⁻⁶ cm/s] | A to B permeability (in words) (Caco-2 cells) | B to A permeability (in words) (Caco-2 cells) | efflux ratio (ER) (in words) (Caco-2 cells) | Selectivity Ki(hCatS)/Ki(hCatK) (human cathepsin S (CatS)) | Ki (human cathepsin S (CatS)) [nM] | inhibition at 31.6 µM (human cathepsin L (CatL)) [%] | Ki (human cathepsin K (CatK)) [nM]
O=C(N[C@H](C(=O)N1C[C@H](Cl)[C@H]2OCC(=O)[C@H]21)C1CCCCC1)c1ccc(-c2ccnnc2)s1 [Example 8, N-((S)-2-((3aS,6S,6aS)-6-chloro-3-oxotetrahydro-2H-furo[3,2-b]pyrrol-4(5H)-yl)-1-cyclohexyl-2-oxoethyl)-5-(pyridazin-4-yl)thiophene-2-carboxamide] | 7.5 | 1.67 | 12.5 | moderate | good | intermediate/low | 1.2 | 21 | 32 | 17
O=C(N[C@H](C(=O)N1C[C@H](Cl)[C@H]2OCC(=O)[C@H]21)C1CCCCC1)c1ccc(-c2cncnc2)s1 [Example 5, N-((S)-2-((3aS,6S,6aS)-6-chloro-3-oxotetrahydro-2H-furo[3,2-b]pyrrol-4(5H)-yl)-1-cyclohexyl-2-oxoethyl)-5-(pyrimidin-5-yl)thiophene-2-carboxamide] | 3.5 | 4.13 | 14.2 | moderate | good | intermediate/low | 1.5 | 48 | 27 | 31
O=C(N[C@H](C(=O)N1C[C@H](Cl)[C@H]2OCC(=O)[C@H]21)C1CCCCC1)c1cccc(-c2cn[nH]c2)c1 [Example C1, N-((S)-2-((3aS,6S,6aS)-6-chloro-3-oxotetrahydro-2H-furo[3,2-b]pyrrol-4(5H)-yl)-1-cyclohexyl-2-oxoethyl)3-(1H-pyrazol-4-yl)benzamide, reference compound] | 46.1 | 0.53 | 24.6 | poor | good | extremely high | 3.8 | 146 | 71 | 38
O=C(N[C@H](C(=O)N1C[C@H](Cl)[C@H]2OCC(=O)[C@H]21)C1CCCCC1)c1ccc(-c2ccncn2)s1 [Example 7, N-((S)-2-((3aS,6S,6aS)-6-chloro-3-oxotetrahydro-2H-furo[3,2-b]pyrrol-4(5H)-yl)-1-cyclohexyl-2-oxoethyl)-5-(pyrimidin-4-yl)thiophene-2-carboxamide] | 1.3 | 5.37 | 7.03 | moderate | good | intermediate/low | 4.7 | 56 | 28 | 12
Cc1nccc(-c2cnc(C(=O)N[C@H](C(=O)N3C[C@H](Cl)[C@H]4OCC(=O)[C@H]43)C3CCCCC3)s2)n1 [Example 32, N-((S)-2-((3aS,6S,6aS)-6-chloro-3-oxotetrahydro-2H-furo[3,2-b]pyrrol-4(5H)-yl)-1-cyclohexyl-2-oxoethyl)-5-(2-methylpyrimidin-4-yl)thiazole-2-carboxamide] | – | – | – | – | – | – | 15.9 | 317 | 22 | 20
O=C(N[C@H](C(=O)N1C[C@H](Cl)[C@H]2OCC(=O)[C@H]21)C1CCCCC1)c1ccc(-c2cnnc(O)c2)s1 [Example 80, N-((S)-2-((3aS,6S,6aS)-6-chloro-3-oxotetrahydro-2H-furo[3,2-b]pyrrol-4(5H)-yl)-1-cyclohexyl-2-oxoethyl)-5-(6-hydroxypyridazin-4-yl)thiophene-2-carboxamide] | – | – | – | – | – | – | 2.6 | 42 | 30 | 16
O=C(N[C@H](C(=O)N1C[C@H](Cl)[C@H]2OCC(=O)[C@H]21)C1CCCCC1)c1ccc(-c2ccnnc2)o1 [Example 19, N-((S)-2-((3aS,6S,6aS)-6-chloro-3-oxotetrahydro-2H-furo[3,2-b]pyrrol-4(5H)-yl)-1-cyclohexyl-2-oxoethyl)-5-(pyridazin-4-yl)furan-2-carboxamide] | – | – | – | – | – | – | 0.8 | 74 | 12 | 93
